Measurements reported in PubChem BioAssay AID330 (DTP/NCI, 2004).
Toxic doses and inconclusive results are not listed. How the source made its calls: active means survival T/C of 150% or more; inactive means T/C below 125% in these data.

System: P388 leukemia ip, CD2F1 mice, survival T/C
Experiment: NCI In Vivo Anticancer Drug Screen. Data for tumor model P388 Leukemia (intraperitoneal) in CD2F1 (CDF1) mice
Conditions: endpoint: median survival time, higher = longer survival
Outline: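 Mice carrying the transplanted tumor received test compound or vehicle. Survival was recorded in each group, and the value is the treated-group measurement divided by that of the vehicle-treated control group.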

[1] = dose: 60.0 mg/kg/injection, schedule: Q01DX005 (ip), vehicle: saline with Tween-80
[2] = dose: 120.0 mg/kg/injection, schedule: Q01DX005 (ip), vehicle: saline with Tween-80
[3] = dose: 240.0 mg/kg/injection, schedule: Q01DX005 (ip), vehicle: saline with Tween-80
[4] = dose: 50.0 mg/kg/injection, schedule: Q01DX005 (ip), vehicle: saline with Tween-80
[5] = dose: 100.0 mg/kg/injection, schedule: Q01DX005 (ip), vehicle: saline with Tween-80
[6] = dose: 50.0 mg/kg/injection, schedule: Q01DX005 (ip), vehicle: Klucel (hydroxypropylcellulose) (HPC)
[7] = dose: 100.0 mg/kg/injection, schedule: Q01DX005 (ip), vehicle: Klucel (hydroxypropylcellulose) (HPC)
[8] = dose: 200.0 mg/kg/injection, schedule: Q01DX005 (ip), vehicle: Klucel (hydroxypropylcellulose) (HPC)
[9] = dose: 60.0 mg/kg/injection, schedule: Q01DX005 (ip), vehicle: saline
[10] = dose: 120.0 mg/kg/injection, schedule: Q01DX005 (ip), vehicle: saline
[11] = dose: 240.0 mg/kg/injection, schedule: Q01DX005 (ip), vehicle: saline

Measured: T/C

O=C(Nc1ccccc1C(F)(F)F)N(CCO)C1CCCCC1
inactive: [1] 103 % of control | [2] 103 % of control | [3] 103 % of control

O=C1C=CC=C2C(=O)C(c3ccccc3)(c3ccccc3)[N+]([O-])=C12
inactive: dose: 50.0 mg/kg/injection, schedule: Q04DX002 (ip), vehicle: saline 100 % of control | dose: 100.0 mg/kg/injection, schedule: Q04DX002 (ip), vehicle: saline 98 % of control | dose: 200.0 mg/kg/injection, schedule: Q04DX002 (ip), vehicle: saline 111 % of control

CSC(/C=C/c1ccccc1)=Nc1ccccc1
inactive: dose: 100.0 mg/kg/injection, schedule: Q01DX001 (ip), vehicle: saline with Tween-80 99 % of control | dose: 200.0 mg/kg/injection, schedule: Q01DX001 (ip), vehicle: saline with Tween-80 99 % of control | dose: 400.0 mg/kg/injection, schedule: Q01DX001 (ip), vehicle: saline with Tween-80 101 % of control

CC(=O)NCC(CN(C)C)(c1ccccc1)c1ccccc1
inactive: dose: 37.5 mg/kg/injection, schedule: Q01DX009 (ip), vehicle: Klucel (hydroxypropylcellulose) (HPC) 101 % of control | dose: 75.0 mg/kg/injection, schedule: Q01DX009 (ip), vehicle: Klucel (hydroxypropylcellulose) (HPC) 101 % of control | dose: 150.0 mg/kg/injection, schedule: Q01DX009 (ip), vehicle: Klucel (hydroxypropylcellulose) (HPC) 96 % of control | dose: 300.0 mg/kg/injection, schedule: Q01DX009 (ip), vehicle: Klucel (hydroxypropylcellulose) (HPC) 95 % of control

CCOC(=O)CC1CC(=O)C(C(=O)OCC)C=C1C(=O)OCC (stereo not given)
inactive: [4] 94 % of control | [5] 98 % of control

NC(=O)c1[nH]nc(C2OC(CO)C(O)C2O)c1O (stereo not given)
inactive: dose: 0.31 mg/kg/injection, schedule: Q01DX009 (ip), vehicle: saline 109 % of control | dose: 0.62 mg/kg/injection, schedule: Q01DX009 (ip), vehicle: saline 122 % of control | dose: 0.67 mg/kg/injection, schedule: Q01DX009 (ip), vehicle: saline 124 % of control | dose: 1.0 mg/kg/injection, schedule: Q04DX003 (ip), vehicle: saline 108 % of control | dose: 2.0 mg/kg/injection, schedule: Q04DX003 (ip), vehicle: saline 113 % of control | dose: 3.0 mg/kg/injection, schedule: Q01DX009 (ip), vehicle: saline 107 % of control | dose: 3.0 mg/kg/injection, schedule: Q04DX003 (ip), vehicle: saline 113 % of control | dose: 4.0 mg/kg/injection, schedule: Q04DX003 (ip), vehicle: saline 120 % of control | dose: 4.4 mg/kg/injection, schedule: Q04DX003 (ip), vehicle: saline 115 % of control | dose: 6.7 mg/kg/injection, schedule: Q04DX003 (ip), vehicle: saline 115 % of control | dose: 8.0 mg/kg/injection, schedule: Q04DX003 (ip), vehicle: saline 111 % of control | dose: 9.0 mg/kg/injection, schedule: Q04DX003 (ip), vehicle: saline 123 % of control | dose: 10.0 mg/kg/injection, schedule: Q04DX003 (ip), vehicle: saline sonified 116 % of control | dose: 10.0 mg/kg/injection, schedule: Q04DX003 (ip), vehicle: saline 106 % of control | dose: 16.0 mg/kg/injection, schedule: Q04DX003 (ip), vehicle: saline 111 % of control | dose: 27.0 mg/kg/injection, schedule: Q04DX003 (ip), vehicle: saline 117 % of control | dose: 32.0 mg/kg/injection, schedule: Q04DX003 (ip), vehicle: saline 104 % of control

O=C(CSC1CCc2ccccc21)NNC(=O)Nc1ccc(Cl)cc1 (stereo not given)
inactive: [6] 90 % of control | [7] 95 % of control | [8] 89 % of control

CC(C)N(CCO)CC(O)Cn1cnc2c(N)ncnc21 (stereo not given) (tested in a mixture with another compound)
inactive: [9] 97 % of control | [10] 94 % of control | [11] 93 % of control

CCOc1c(N=Nc2ccc(Cl)cc2)c(-c2ccccc2)nn1C(=S)S
inactive: [4] 97 % of control | [5] 99 % of control | dose: 200.0 mg/kg/injection, schedule: Q01DX005 (ip), vehicle: saline with Tween-80 91 % of control

CN1CSC(=S)NCCNC(=S)SC1
inactive: [6] 87 % of control | [7] 94 % of control | [8] 87 % of control

CCc1ccccc1NC(=O)C(C#N)C1=C(Cl)C(=O)c2ccccc2C1=O (stereo not given)
inactive: [1] 113 % of control | [2] 106 % of control

COc1cc(OC)c(C2CC(C)(N3CCCC3)Oc3cc4c(cc32)OCO4)c(OC)c1 (stereo not given)
inactive: [1] 94 % of control | [2] 91 % of control | [3] 87 % of control

COc1ccc(C2c3cc4c(cc3OC(O)C2C)OCO4)c(OC)c1 (stereo not given)
inactive: dose: 100.0 mg/kg/injection, schedule: Q04DX002 (ip), vehicle: saline with Tween-80 97 % of control | dose: 200.0 mg/kg/injection, schedule: Q04DX002 (ip), vehicle: saline with Tween-80 97 % of control | dose: 400.0 mg/kg/injection, schedule: Q04DX002 (ip), vehicle: saline with Tween-80 95 % of control

COc1cccc(C(c2cc3c(cc2O)OCO3)N2CCN(C(c3cc4c(cc3O)OCO4)c3cccc(OC)c3O)CC2)c1O (stereo not given)
inactive: [9] 98 % of control | [10] 98 % of control | [11] 100 % of control
